The results in this text go back to patent US9879058B2, “Use of compounds that selectively modulate astrocytic release of substances through hemichannels of connexins and pannexins, without influencing gap junctions, for the treatment of psychiatric disorders” (Universidad Andres Bello, priority 2012, dated 2018).

Entries after “also recorded” stand apart in the source; their conditions may differ. Like-named read-outs stand apart in the source and are kept apart here. No end group written: not given here.

Assay [1] concerns Sprague Dowley rats. Nature of the assay: Openfield test. In kind it is in vivo, rat. The settings on record: for time in the center of the openfield (thigmotaxis): cacotheline 10 μM. On the procedure: A. Animals: All procedures involving animals were in accordance to NIH guidelines and with approval of the bioethical committee of the Universidad Andrés Bello. Sprague Dowley rats (˜60 d old, ˜250 g) were caged individually at 22° C., 12/12 h light/dark cycle. The rats remained in their home box throughout the study, and were removed only briefly for drug microinfusions. B. Drugs: For intra hippocampal microinjections Gap19 ([…] (SEQ ID NO: 3), LifeTein, South Plainfield, N.J., USA, >90% purity) was dissolved in PBS to yield a final solution of 100 μM and cacotheline was dissolved in sterile saline to a final concentration of 10 μM. For intravenous injections, cacotheline was dissolved to a final concentration of 10 μM in the blood stream, assuming circulating blood as 7% of body weight. Cacotheline was injected into the caudal vein under 4% isofluorane gas anesthesia. In a control group of rats sterile saline injection of equal volume was injected. C. Dye uptake: Gap junction permeability was determined at room temperature using the scrape-loading/dye transfer (SL/DT) technique, Hela cells were incubated with Carboxy-fluorescin (1 mg/ml) in the same Ca2+ free HEPES-buffered salt solution as above, then the test compound was added, followed byscrape-loading, which was performed with a razor blade. After 3 minutes the cells are washed with HEPES-buffered salt solution and mounted in Fluoromount and examined by epifluorescence. D. Apparatus: All behavioral essays were performed in an openfield made of Plexiglas (60 cm×40 cm) or a dark/light exploration box (70×40 cm; light compartment 40×40 cm, dark compartment 30×40 cm), illuminated by a white light bulb. A video camera was mounted at the top of the chamber to allow digital recording throughout the experiments. E. Surgery and histology: Under ketamine/xylazine anesthesia ([…], respectively), rats were stereotaxically implanted with bilateral 22-gauge stainless steel cannulas aimed 1.0 mm above the ventral hippocampus (5.0 mm posterior to Bregma, 5.0 mm lateral to the midline, and 6.0 mm ventral to the skull surface (Paxinos, G., Watson, C. (1998). The Rat Brain in Stereotaxic Coordinates; Press A, editor, San Diego). The cannulas were fixed with acrylic dental cement and secured by 4 skull screws. A stylus was placed inside the guide cannula to prevent clogging. Rats were given at least 7 days to recover before experimental procedures began.
In all experiments, stylus was removed from the guide cannula, and a 28-gauge injection cannula was inserted through the guide cannula, extending 1.0 mm beyond its tip into the ventral hippocampus. Drugs were infused slowly via the injection cannula, connected by PE20 tubing to Hamilton microsyringes driven by a microinfusion pump. Infusions were of 0.25 μl per hemisphere at a rate of 0.32 μl/min. Following drug infusion, injecting cannulaes were left in place for 10 minutes to allow drug diffusion away from the cannula tip. At the end of all experiments, animals were anesthetized as above and perfused intracardially with saline, 4% buffered paraformaldehyde. Brains were extracted and postfixed in 30% sucrose until density equaled that of sucrose. […] Animals with histological lesions beyond the size of the cannula tip and guide cannula diameter were excluded from the analysis.
F. Behavioral procedures: To assess the effects of TAT-Gap19 on locomotor activity, entire body movements were measured in the openfield and counted as the number of crossings (transitions) between virtual square subdivisions of 10 cm^2 measured offline from digital video recordings. Measures of anxiety included thigmotaxis, rearing activity in the openfield. Transitions between light and dark compartments, number of times the animal peaked from the dark compartment into the lit compartment, and time spent in the lit compartment were measured in the Dark/light box paradigm^(62, 63). G. Data Analysis: Data were expressed as Mean+SD. […]

The next assay concerns the target T1, Cx43 gap junctions (Homo sapiens, UniProt P17302).
T1 construct: expressed in transfected cells; host or cells: HeLa
Kind of assay: Scrape-loading/dye transfer in Cx43 transfected Hela cells. In kind it is cell-based. On the procedure: Gap junction permeability was determined at room temperature using the scrape-loading/dye transfer (SL/DT) technique, Hela cells were incubated with Carboxy-fluorescin (1 mg/ml) in the same Ca2+ free HEPES-buffered salt solution as above, then the test compound was added, followed by scrape-loading, which was performed with a razor blade. After 3 minutes the cells are washed with HEPES-buffered salt solution and mounted in Fluoromount and examined by epifluorescence.
A. Animals: All procedures involving animals were in accordance to NIH guidelines and with approval of the bioethical committee of the Universidad Andrés Bello. Sprague Dowley rats (˜60 d old, ˜250 g) were caged individually at 22° C., 12/12 h light/dark cycle. The rats remained in their home box throughout the study, and were removed only briefly for drug microinfusions. B. Drugs: For intra hippocampal microinjections Gap19 ([…] (SEQ ID NO: 3), LifeTein, South Plainfield, N.J., USA, >90% purity) was dissolved in PBS to yield a final solution of 100 μM and cacotheline was dissolved in sterile saline to a final concentration of 10 μM. For intravenous injections, cacotheline was dissolved to a final concentration of 10 μM in the blood stream, assuming circulating blood as 7% of body weight. Cacotheline was injected into the caudal vein under 4% isofluorane gas anesthesia. In a control group of rats sterile saline injection of equal volume was injected. C. Dye uptake: Gap junction permeability was determined at room temperature using the scrape-loading/dye transfer (SL/DT) technique, Hela cells were incubated with Carboxy-fluorescin (1 mg/ml) in the same Ca2+ free HEPES-buffered salt solution as above, then the test compound was added, followed byscrape-loading, which was performed with a razor blade. After 3 minutes the cells are washed with HEPES-buffered salt solution and mounted in Fluoromount and examined by epifluorescence. […]

Another assay addresses T2, Cx30 hemichannels (Homo sapiens, UniProt O95452).
T2 construct: expressed in transfected cells; host or cells: HeLa
Kind of assay: EthBr dye uptake in Cx30 transfected Hela cells. The class given is cell-based. On the procedure: For visualization of dye uptake by captured images, Cx30 transfected Hela cells were exposed to 25 uM EthBr (Invitrogen, Eugene, Oreg.) for 5 min at room temperature. Then, cells were incubated with either HEPES-buffered salt solution containing 140 mM NaCl, 4 mM KCl, 1 mM CaCl2, 1 mM MgCl2, 5 mM glucose, […] or in calcium free HEPES-buffered salt solution (140 mM NaCl, 4 mM KCl, 5 mM glucose, […]). Then the test compound was added to both solutions followed by EthBr dissolved to a final 25 uM concentration. Cells are washed and mounted in Fluoromount and examined by epifluorescence.

The test system of assay [2] is Sprague Dowley rats. Nature of the assay: Contextual fear conditioning after intravenous injection. In kind it is in vivo, rat. The following applies: 10 minutes before training, 10 μM in the blood stream. On the procedure: A. Animals: All procedures involving animals were in accordance to NIH guidelines. Sprague Dowley rats (˜60 d old, ˜250 g) were caged individually at 22° C., 12/12 h light/dark cycle. The rats remained in their home box throughout the study, and were removed only briefly for drug microinfusions. B. Drugs: Cacotheline (Pharmeks Ltd. Moscow, Russia) was dissolved in sterile saline to yield a final solution of 10 μM in the blood stream. As a control, only sterile saline injection of equal volume was used. Cacotheline was injected into the caudal vein under 4% isofluorane anesthesia. C. Apparatus: All behavioral essays were performed in a sound attenuating cubicle. Conditioning and testing were conducted in the same chamber. For conditioning, rats were placed in a Plexiglas chamber with a metal grid floor (40 cm×40 cm×40 cm). The chamber was dimly illuminated by a red light. A video camera was mounted at the top of each chamber to allow digital recording throughout the experiments. D. Behavioral procedures: The conditioning is based on the animal learning that a previously neutral stimulus (a conditioned stimulus, CS; e.g. a context) becomes predictive of a stressful stimulus (unconditioned stimulus, US; e.g. footshock). […] During the test, total seconds of freezing (immobility) were calculated for each rat when exposed to the conditioned context for 5 minutes without the footshock. […]

Another assay deals with rats. Nature of the assay: Forced swim test (FST). In kind it is in vivo, rat. The following applies: intravenous, 10 μM in the blood stream, 10 minutes before the test. As to the method:
A. Methods: To assess depressive-like symptoms the forced swim test (FST) was employed, which was similar to that described elsewhere^(65). On training, rats were individually placed in a transparent Plexiglas cylinder (30 cm diameter×60 cm height) filled with water at 25±2° C. for 15 minutes. 24 h later, the animals were placed again in the cylinder for 5 minutes as described before. After initial vigorous swimming activity, swimming attempts normally cease and the animal adopts a characteristic immobile floating posture. Rats were scored for time to reach immobility and total immobility time by a trained observer from offline video recordings. Immobility was defined as the cessation of limb movements. B. Drugs: Cacotheline was dissolved to a final concentration of 10 μM into the blood stream, assuming circulating blood as 7% of body weight. Cacotheline was injected into the caudal vein under 4% isofluorane gas anesthesia 10 minutes before the behavioural test. In a control group of rats sterile saline injection of equal volume was injected. C. […] D. Discussion: A compound capable of increasing Cx43 hemichannel activity was able to decrease immobility in the FST, indication antidepressant effects. […] This implies that Cx43 modulators are useful to treat depression and other mood disorders.

Another assay has as its system Cx30 gap junctions. Nature of the assay: Scrape-loading/dye transfer, Cx30 gap junctions in Hela cells. The class given is cell-based. On the procedure:
Gap junction permeability was determined at room temperature using the scrape-loading/dye transfer (SL/DT) technique, Hela cells were incubated with Carboxy-fluorescin (1 mg/ml) in the same Ca2+ free HEPES-buffered salt solution as above. Then the test compound was added. Scrape-loading was then performed with a razor blade. After 3 minutes the cells are washed with HEPES-buffered salt solution and mounted in Fluoromount and examined by epifluorescence.

The mark [3] stands for this setting: microinjected into ventral hippocampus.
[4] abbreviates: microinjected into ventral hippocampus, peptides 100 μM.

T1 sequence (P17302 whole entry): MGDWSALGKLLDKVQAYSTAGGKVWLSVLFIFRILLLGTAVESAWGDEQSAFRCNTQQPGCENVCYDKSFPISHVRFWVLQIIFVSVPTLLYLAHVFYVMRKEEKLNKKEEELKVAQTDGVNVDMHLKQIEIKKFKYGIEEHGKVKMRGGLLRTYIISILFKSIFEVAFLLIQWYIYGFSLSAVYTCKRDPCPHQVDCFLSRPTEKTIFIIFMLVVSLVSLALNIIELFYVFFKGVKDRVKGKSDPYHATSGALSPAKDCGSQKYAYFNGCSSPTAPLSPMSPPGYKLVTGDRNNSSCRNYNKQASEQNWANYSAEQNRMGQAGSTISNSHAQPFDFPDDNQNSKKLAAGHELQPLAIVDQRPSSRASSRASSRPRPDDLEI
T2 sequence (O95452 whole entry): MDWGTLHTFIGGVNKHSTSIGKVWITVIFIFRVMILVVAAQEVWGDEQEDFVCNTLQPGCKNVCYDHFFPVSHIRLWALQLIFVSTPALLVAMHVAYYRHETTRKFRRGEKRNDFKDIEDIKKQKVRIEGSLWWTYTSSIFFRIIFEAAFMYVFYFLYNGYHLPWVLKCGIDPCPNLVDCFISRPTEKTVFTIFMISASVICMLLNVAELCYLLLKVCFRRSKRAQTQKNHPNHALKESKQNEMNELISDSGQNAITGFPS

Regarding “YGRKKRRQRRRRDLDLRDGP [TAT-Pnx1L5, pannexin 1 mimetic peptide]”, the effect on anxiety result in the assay with Sprague Dowley rats [1] (setting [3]) is reported as “anxiolytic effects”. In the assay on Sprague Dowley rats [1] (setting [4]), the “time in the center of the openfield (thigmotaxis)” value (“time in the center” for short) is “increasing significantly the time in the center of the openfield” and the “locomotion (transitions) in the openfield” value (“locomotion (transitions)” for short) is on record as “increased locomotion at the openfield”. For the same compound, in the assay on Sprague Dowley rats [1] (microinjected into ventral hippocampus, peptides 100 μM, listed as Pnx1Li), the “locomotion (transitions)” value is “increasing significantly”.
As to WRQAAFVDSY [Pnx1], the effect on anxiety result in the assay on Sprague Dowley rats [1] (setting [3]) is “anxiolytic effects”. Moreover, in the assay on Sprague Dowley rats [1] (setting [4]), the “time in the center” value is “increase in time at the center of the openfield; also recorded: increasing significantly the time in the center of the openfield” and the “locomotion (transitions)” value is listed as “increasing significantly”.
Regarding YGRKKRRQRRRCYDHFFPVSHIR [TAT-Cx30], the “Cx43 gap junctional coupling” value with Cx43 gap junctions was “had no effects on Cx43 gap junctional coupling”. For the same compound, the effect on anxiety result with Sprague Dowley rats [1] (setting [3]) was “anxiolytic effects”. In addition, in the assay with Sprague Dowley rats [1] (setting [4]), the “time in the center” value is reported as “increase in time at the center of the openfield” and the “locomotion (transitions)” value is “increase in locomotion at the openfield”. Also, the Cx30 hemichannel activity entry with Cx30 hemichannels is “increase in Cx30 hemichannel activity”.
Turning to `O=C(O)C[C@@H]1OCC=C2CN3CC[C@]45C6=CC(=O)C(=O)C([N+](=O)[O-])=C6N[C@H]4[C@H]1[C@H]2C[C@H]35` [Cacotheline, 2,3-Dihydro-4-nitro-2,3-dioxo-9,10-secostrychnidin-10-oic acid], the “Cx43 gap junctional coupling” value on Cx43 gap junctions was “had no effects on Cx43 gap junctional coupling; also recorded: without affecting Cx43 gap junctions”; on Cx43 gap junctions (listed as cacotheline) it was “no effects on gap junctional coupling”. Further, the results for the “freezing to conditioned context 24 h after training” value in the assay on Sprague Dowley rats [2] and in the assay with Sprague Dowley rats [2] (listed as cacotheline) were “increased freezing” and “increase freezing”, respectively. Moreover, the “locomotion (transitions)” value in the assay with Sprague Dowley rats [1] (intravenous, 10 μM in the blood stream) was “increase in locomotion at the openfield; also recorded: increase in total locomotion”. Also, the effect on anxiety entry in the assay with Sprague Dowley rats [1] (setting [3]) is given as “anxiolytic effects”. The “time in the center” value is given as “significant increase in the time spent in the center of the openfield” with Sprague Dowley rats [1] (setting [4]) and “increase in time at the center of the openfield” with Sprague Dowley rats [1] (microinjected into ventral hippocampus, peptides 100 μM, listed as cacotheline). Besides, in the assay with rats, the “immobility in the FST” value is listed as “significant decrease in immobility time”.
As for YGRKKRRQRRRDAPALYSNLSKKRG [TAT-Cx30L4], the effect on anxiety result with Sprague Dowley rats [1] (setting [3]) is listed as “anxiolytic effects”. Also, in the assay on Sprague Dowley rats [1] (setting [4]), the “time in the center” value is given as “statistically significant increase in the time the animals spent in the center” and the “locomotion (transitions)” value was “tendency to increase locomotion”. Moreover, the Cx30 hemichannel activity result with Cx30 hemichannels is “increase hemichannel activity”. Also, in the assay on Cx30 gap junctions, the “Cx30 gap junctional communication” value was “unaffected”.
